Test results reported in the supplement of paper PMC6045584.
± gives the standard deviation of the averaged measurements.

What was measured:
OLAPARIB = compound: O=C(c1cc(Cc2n[nH]c(=O)c3ccccc23)ccc1F)N1CCN(C(=O)C2CC2)CC1 [OLAPARIB]; experiment: surviving fraction relative to DMSO-only wells; higher = less growth inhibition; settings: exposure time: 5 days
Summary of the method: (§1)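 Lines were retained only if, across three screens, replicate Pearson r was >0.7 and median Z' was >0.3. Viability was measured as CellTiter-Glo luminescence and reported as surviving fraction relative to the median of DMSO-only wells. Readings followed 10 minutes at room temperature, after log-phase tumour cells seeded at 250–500 per well in 384-well plates had been exposed, from 24 hours after seeding, continuously for five days to inhibitors at 0.5, 1, 5, 10, 50, 100, 500 and 1000 nM.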

ABIRATERONE = compound: C[C@]12CC[C@H](O)CC1=CC[C@@H]1[C@@H]2CC[C@]2(C)C(c3cccnc3)=CC[C@@H]12 [ABIRATERONE]; experiment: as above; settings: exposure time: 5 days
Summary of the method: as §1

| Test System | surviving fraction (OLAPARIB; 0.5 nM) | surviving fraction (OLAPARIB; 1 nM) | surviving fraction (OLAPARIB; 5 nM) | surviving fraction (OLAPARIB; 10 nM) | surviving fraction (OLAPARIB; 50 nM) | surviving fraction (OLAPARIB; 100 nM) | surviving fraction (OLAPARIB; 500 nM) | surviving fraction (OLAPARIB; 1000 nM) | surviving fraction (ABIRATERONE; 0.5 nM) | surviving fraction (ABIRATERONE; 1 nM) | surviving fraction (ABIRATERONE; 5 nM) | surviving fraction (ABIRATERONE; 10 nM) | surviving fraction (ABIRATERONE; 50 nM) | surviving fraction (ABIRATERONE; 100 nM) | surviving fraction (ABIRATERONE; 500 nM) | surviving fraction (ABIRATERONE; 1000 nM) |
| --- | --- | --- | --- | --- | --- | --- | --- | --- | --- | --- | --- | --- | --- | --- | --- | --- |
| 22RV1 PROSTATE | 1.08 ± 0.029 | 1.04 ± 0.044 | 1.05 ± 0.036 | 1.01 ± 0.09 | 1.06 ± 0.031 | 1 ± 0.05 | 1.04 ± 0.049 | 0.997 ± 0.051 | 1.06 ± 0.047 | 1.09 ± 0.086 | 1.07 ± 0.062 | 1.09 ± 0.047 | 1.11 ± 0.029 | 1.09 ± 0.051 | 1.17 ± 0.067 | 1.08 ± 0.054 |
| 93VU HEADNECK | 1.02 ± 0.1 | 1.01 ± 0.074 | 1.12 ± 0.033 | 1.07 ± 0.09 | 0.955 ± 0.072 | 0.955 ± 0.03 | 0.92 ± 0.049 | 0.837 ± 0.096 | 1.2 ± 0.027 | 1.15 ± 0.12 | 1.12 ± 0.031 | 1.2 ± 0.024 | 1.32 ± 0.038 | 1.19 ± 0.056 | 1.17 ± 0.12 | 1.11 ± 0.12 |
| 143B BONE | 1.025 ± 0.0014 | 1.044 ± 0.0092 | 1.04 ± 0.019 | 1 ± 0.025 | 1.05 ± 0.027 | 1.01 ± 0.017 | 1.02 ± 0.023 | 0.9915 ± 0.005 | 1.04 ± 0.013 | 1.046 ± 0.005 | 1.05 ± 0.023 | 1.03 | 1.06 ± 0.035 | 1.07 ± 0.035 | 1.02 ± 0.012 | 1.01 ± 0.029 |
| A549 LUNG | 1.06 ± 0.036 | 1.07 ± 0.042 | 1.06 ± 0.031 | 1.05 ± 0.035 | 1.06 ± 0.025 | 1.04 ± 0.045 | 1.09 ± 0.021 | 1.02 ± 0.057 | 1.04 ± 0.05 | 1.03 ± 0.059 | 1.05 ± 0.01 | 1.04 ± 0.045 | 1.1 ± 0.049 | 1.11 ± 0.019 | 1.08 ± 0.12 | 1.09 ± 0.087 |
| ASKA SYNOVIAL | 1.16 ± 0.13 | 1.13 ± 0.043 | 1.14 ± 0.096 | 1.06 ± 0.09 | 0.936 ± 0.051 | 0.921 ± 0.044 | 0.772 ± 0.056 | 0.655 ± 0.071 | 1.19 ± 0.076 | 1.19 ± 0.11 | 1.23 ± 0.076 | 1.11 ± 0.11 | 1.2 ± 0.059 | 1.28 ± 0.069 | 1.19 ± 0.099 | 1.04 ± 0.1 |
| BT20 BREAST | 0.996 ± 0.12 | 1.14 ± 0.055 | 0.942 ± 0.14 | 1.04 ± 0.096 | 0.757 ± 0.1 | 0.732 ± 0.13 | 0.795 ± 0.21 | 0.773 ± 0.085 | 1.17 ± 0.082 | 1.04 ± 0.23 | 1.22 ± 0.11 | 1.21 ± 0.2 | 1.12 ± 0.23 | 1.14 ± 0.15 | 1.13 ± 0.16 | 1 ± 0.14 |
| BT549 BREAST | 1.03 ± 0.096 | 1.01 ± 0.064 | 0.941 ± 0.0053 | 0.9883 ± 0.0074 | 0.686 ± 0.041 | 0.719 ± 0.062 | 0.718 ± 0.033 | 0.598 ± 0.048 | 0.768 ± 0.079 | 1.07 ± 0.083 | 0.991 ± 0.012 | 1.02 ± 0.059 | 0.92 ± 0.067 | 1.15 ± 0.13 | 1.07 ± 0.038 | 1.2 ± 0.17 |
| C33A CERVIX | 1.04 ± 0.098 | 1.04 ± 0.02 | 1.07 ± 0.049 | 1.03 ± 0.017 | 1.05 ± 0.098 | 0.998 ± 0.14 | 0.895 ± 0.068 | 0.841 ± 0.11 | 1.19 ± 0.19 | 1.13 ± 0.059 | 1.19 ± 0.063 | 1.03 ± 0.022 | 1.12 ± 0.08 | 1.17 ± 0.068 | 1.2 ± 0.027 | 1.06 ± 0.13 |
| CADOES1 SOFT TISSUE | 1.01 ± 0.059 | 0.855 ± 0.072 | 1.03 ± 0.07 | 0.8393 ± 0.0035 | 0.951 ± 0.046 | 0.953 ± 0.076 | 0.895 ± 0.084 | 0.81 ± 0.14 | 0.958 ± 0.12 | 1.03 ± 0.061 | 0.978 ± 0.11 | 0.943 ± 0.04 | 1 ± 0.025 | 1.11 ± 0.055 | 1.04 ± 0.14 | 0.955 ± 0.061 |
| CAL51 BREAST | 0.97 ± 0.044 | 1 ± 0.051 | 0.95 ± 0.025 | 0.926 ± 0.07 | 0.948 ± 0.03 | 0.882 ± 0.076 | 0.828 ± 0.024 | 0.66 ± 0.051 | 0.988 ± 0.068 | 0.984 ± 0.019 | 1.03 ± 0.043 | 0.964 ± 0.039 | 1.02 ± 0.048 | 1.04 ± 0.044 | 1.02 ± 0.048 | 1.02 ± 0.028 |
| CAL72 BONE | 1.05 ± 0.017 | 1.098 ± 0.0086 | 1.0433 ± 0.00058 | 1.06 ± 0.033 | 0.98 ± 0.029 | 0.958 ± 0.027 | 0.949 ± 0.021 | 0.901 ± 0.029 | 1.087 ± 0.0031 | 1.1 ± 0.023 | 1.09 ± 0.056 | 1.09 ± 0.043 | 1.16 ± 0.012 | 1.15 ± 0.019 | 1.13 ± 0.048 | 1.07 ± 0.027 |
| CAL120 BREAST | 0.9857 ± 0.0086 | 0.998 ± 0.018 | 1 ± 0.023 | 0.973 ± 0.024 | 0.979 ± 0.01 | 0.942 ± 0.04 | 0.892 ± 0.013 | 0.825 ± 0.043 | 0.954 ± 0.011 | 1 ± 0.015 | 1.01 ± 0.013 | 1.01 ± 0.011 | 1.04 ± 0.059 | 1.04 ± 0.041 | 1.05 ± 0.028 | 0.988 ± 0.037 |
| CASKI CERVIX | 0.921 ± 0.029 | 0.947 ± 0.057 | 0.993 ± 0.051 | 0.982 ± 0.015 | 0.859 ± 0.016 | 0.844 ± 0.026 | 0.749 ± 0.075 | 0.765 ± 0.068 | 0.924 ± 0.015 | 0.884 ± 0.044 | 1.04 ± 0.1 | 1.03 ± 0.018 | 1.08 ± 0.027 | 1.1 ± 0.014 | 1.09 ± 0.032 | 1.11 ± 0.05 |
| CHLA90 AUTONOMIC GANGLIA | 1.02 ± 0.065 | 1.07 ± 0.037 | 1.01 ± 0.035 | 0.993 ± 0.048 | 0.95 ± 0.052 | 1.01 ± 0.078 | 0.963 ± 0.061 | 0.966 ± 0.059 | 1.01 ± 0.064 | 1.07 ± 0.043 | 1.06 ± 0.023 | 1.05 ± 0.044 | 1.05 ± 0.052 | 0.993 ± 0.096 | 1.08 ± 0.017 | 1.09 ± 0.05 |
| CME SYNOVIAL | 1.29 ± 0.3 | 1.27 ± 0.059 | 1.23 ± 0.11 | 1.16 ± 0.22 | 0.737 ± 0.14 | 0.616 ± 0.051 | 0.386 ± 0.053 | 0.303 ± 0.021 | 1.28 ± 0.1 | 1.38 ± 0.15 | 1.43 ± 0.15 | 1.29 ± 0.086 | 1.37 ± 0.17 | 1.37 ± 0.029 | 1.34 ± 0.18 | 1.2 ± 0.18 |
| COLO320DM LARGE INTESTINE | 1.13 ± 0.19 | 0.997 ± 0.15 | 1.09 ± 0.046 | 1.03 ± 0.21 | 1.07 ± 0.091 | 1.03 ± 0.082 | 1.06 ± 0.048 | 0.991 ± 0.03 | 1.13 ± 0.084 | 1.09 ± 0.033 | 1.11 ± 0.07 | 1.17 ± 0.057 | 1.26 ± 0.19 | 1.1 ± 0.062 | 1.2 ± 0.38 | 1.02 ± 0.027 |
| DU4475 BREAST | 1.16 ± 0.21 | 1.36 ± 0.5 | 1.228 ± 0.009 | 1.22 ± 0.31 | 0.954 ± 0.28 | 0.739 ± 0.23 | 0.689 ± 0.21 | 0.517 ± 0.15 | 0.872 ± 0.039 | 1.02 ± 0.19 | 0.991 ± 0.14 | 0.983 ± 0.12 | 0.989 ± 0.15 | 0.917 ± 0.32 | 0.998 ± 0.23 | 0.938 ± 0.34 |
| H23 LUNG | 1.09 ± 0.03 | 1.07 ± 0.02 | 1.1 ± 0.022 | 1.064 ± 0.004 | 1.22 ± 0.03 | 1.13 ± 0.041 | 1.14 ± 0.0042 | 1.08 ± 0.02 | 1.07 ± 0.058 | 1.05 ± 0.062 | 1.06 ± 0.056 | 1.07 ± 0.049 | 1.1 ± 0.063 | 1.16 ± 0.032 | 1.17 ± 0.031 | 1.16 ± 0.072 |
| HCC78 LUNG | 0.948 ± 0.06 | 0.986 ± 0.2 | 1.03 ± 0.32 | 1.22 ± 0.46 | 1.12 ± 0.1 | 1.05 ± 0.12 | 0.987 ± 0.19 | 0.859 ± 0.068 | 0.94 ± 0.12 | 0.911 ± 0.058 | 1.09 ± 0.15 | 1.06 ± 0.23 | 1.12 ± 0.16 | 1.15 ± 0.25 | 0.936 ± 0.063 | 0.823 ± 0.24 |
| HCC202 BREAST | 0.896 ± 0.024 | 0.973 ± 0.12 | 0.987 ± 0.19 | 0.92 ± 0.2 | 0.713 ± 0.2 | 0.68 ± 0.026 | 0.737 ± 0.075 | 0.649 ± 0.1 | 1.062 ± 0.0076 | 1.28 ± 0.2 | 1.16 ± 0.15 | 1.32 ± 0.44 | 1.27 ± 0.073 | 1.23 ± 0.031 | 0.991 ± 0.13 | 0.86 ± 0.28 |
